Legend:
Assay type in all cases: in vivo
[1] = system: Setaria faberi (SETFA); experiment: Post-emergence biological efficacy, glasshouse, 500 or 1000 g/ha, evaluated after 13 days (100=total damage to plant; 0=no damage to plant); settings: Setaria faberi, 312 h, read-out: Percentage damage caused to weed species, post-emergence, SETFA; for pest or weed control at 1000 g/ha: rate 1,000 g/ha
Procedure, shortened: (§1)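 Weed seeds were sown in standard soil in pots and the plants treated post-emergence. Afterwards they were grown on in a controlled glasshouse at 24/16° C. day/night with 14 hours light and 65% humidity, and watered twice daily.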

[2] = system: Ipomoea hederaceae (IPOHE); experiment: as above; settings: Ipomoea, 312 h, read-out: Percentage damage caused to weed species, post-emergence, IPOHE; for pest or weed control at 1000 g/ha: rate 1,000 g/ha
Procedure, shortened: as §1

[3] = system: Echinochloa crusgaffi (ECHCG); experiment: as above; settings: Echinochloa, 312 h, read-out: Percentage damage caused to weed species, post-emergence, ECHCG; for pest or weed control at 1000 g/ha: rate 1,000 g/ha
Procedure, shortened: as §1

[4] = system: Amaranthus retroflexus (AMARE); experiment: as above; settings: Amaranthus retroflexus, 312 h, read-out: Percentage damage caused to weed species, post-emergence, AMARE; for pest or weed control at 1000 g/ha: rate 1,000 g/ha
Procedure, shortened: as §1

[5] = system: Solanum nigrum (SOLNI); experiment: as above; settings: Solanum nigrum, 312 h, read-out: Percentage damage caused to weed species, post-emergence, SOLNI; for pest or weed control at 1000 g/ha: rate 1,000 g/ha
Procedure, shortened: as §1

[6] = system: Alopecurus myosuroides (ALOMY); experiment: as above; settings: Alopecurus myosuroides, 312 h, read-out: Percentage damage caused to weed species, post-emergence, ALOMY; for pest or weed control at 1000 g/ha: rate 1,000 g/ha
Procedure, shortened: as §1

[7] = system: Setaria faberi (SETFA); experiment: Pre-emergence biological efficacy, glasshouse, 1000 g/ha, evaluated after 13 days (100=total damage to plant; 0=no damage to plant); settings: Setaria faberi, 312 h, read-out: Percentage damage caused to weed species, pre-emergence, SETFA; for pest or weed control at 1000 g/ha: rate 1,000 g/ha
Procedure, shortened: (§2)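 Sowing: standard soil, pots. Growth: glasshouse, 24/16° C. day/night, 14 hours light, 65% humidity. Watering: twice daily.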

[8] = system: Echinochloa crus-galli (ECHCG); experiment: as above; settings: Echinochloa crus-galli, 312 h, read-out: Percentage damage caused to weed species, pre-emergence, ECHCG; for pest or weed control at 1000 g/ha: rate 1,000 g/ha
Procedure, shortened: as §2

[9] = system: Ipomoea hederaceae (IPOHE); experiment: as above; settings: Ipomoea, 312 h, read-out: Percentage damage caused to weed species, pre-emergence, IPOHE; for pest or weed control at 1000 g/ha: rate 1,000 g/ha
Procedure, shortened: as §2

[10] = system: Amaranthus retroflexus (AMARE); experiment: as above; settings: Amaranthus retroflexus, 312 h, read-out: Percentage damage caused to weed species, pre-emergence, AMARE; for pest or weed control at 1000 g/ha: rate 1,000 g/ha
Procedure, shortened: as §2

[11] = system: Solanum nigrum (SOLNI); experiment: as above; settings: Solanum nigrum, 312 h, read-out: Percentage damage caused to weed species, pre-emergence, SOLNI; for pest or weed control at 1000 g/ha: rate 1,000 g/ha
Procedure, shortened: as §2

[12] = system: Alopecurus myosuroides (ALOMY); experiment: as above; settings: Alopecurus myosuroides, 312 h, read-out: Percentage damage caused to weed species, pre-emergence, ALOMY; for pest or weed control at 1000 g/ha: rate 1,000 g/ha
Procedure, shortened: as §2

SMILES | pest or weed control at 1000 g/ha [1] | pest or weed control at 1000 g/ha [2] | pest or weed control at 1000 g/ha [3] | pest or weed control at 1000 g/ha [4] | pest or weed control at 1000 g/ha [5] | pest or weed control at 1000 g/ha [6] | pest or weed control at 1000 g/ha [7] | pest or weed control at 1000 g/ha [8] | pest or weed control at 1000 g/ha [9] | pest or weed control at 1000 g/ha [10] | pest or weed control at 1000 g/ha [11] | pest or weed control at 1000 g/ha [12] | further results
COC(=O)c1nc(-c2ccc(Cl)c(OC)c2F)cc2c1c(C)cn2C(=O)OC [Compound 38-64, 6-(4-Chloro-2-fluoro-3-methoxyphenyl)-1,4-di(methoxycarbonyl)-3-methyl-1H-pyrrolo[3,2-c]pyridine] | 10% | 20% | 0% | 0% | 10% | 10% | 0% | 0% | 0% | 0% | 0% | 0% | 
COC(=O)c1nc(-c2ccc(Cl)c(OC)c2F)cc2c1c(C)cn2S(=O)(=O)c1ccc(C)cc1 [Compound 40-64, 6-(4-Chloro-2-fluoro-3-methoxyphenyl)-4-methoxycarbonyl-3-methyl-1-(4-methylphenyl-sulphonyl)-1H-pyrrolo[3,2-c]pyridine] | 0% | 50% | 0% | 0% | 60% | 0% | 10% | 10% | 0% | 0% | 40% | 0% | 
C=C1c2c(nc(-c3ccc(Cl)c(OC)c3F)nc2C(=O)OC)NCC1(C)C [Compound 71-180, 2-(4-Chloro-2-fluoro-3-methoxyphenyl)-6,6-dimethyl-4-methoxycarbonyl-5-methylene-5,6,7,8-tetrahydro-pyrido[2,3-d]pyrimidine] |  |  |  |  |  |  |  |  |  |  |  |  | pest or weed control at 500 g/ha ([1]; rate 500 g/ha): 0%; pest or weed control at 500 g/ha ([2]; rate 500 g/ha): 40%; pest or weed control at 500 g/ha ([3]; rate 500 g/ha): 0%; pest or weed control at 500 g/ha ([4]; rate 500 g/ha): 0%; pest or weed control at 500 g/ha ([5]; rate 500 g/ha): 20%; pest or weed control at 500 g/ha ([6]; rate 500 g/ha): 0%; pest or weed control at 500 g/ha ([7]; rate 500 g/ha): 0%; pest or weed control at 500 g/ha ([8]; rate 500 g/ha): 0%; pest or weed control at 500 g/ha ([9]; rate 500 g/ha): 0%; pest or weed control at 500 g/ha ([10]; rate 500 g/ha): 0%; pest or weed control at 500 g/ha ([11]; rate 500 g/ha): 0%; pest or weed control at 500 g/ha ([12]; rate 500 g/ha): 0%
COC(=O)c1nc(-c2ccc(Cl)c(OC)c2F)nc2c1N(Cc1ccccc1)C(C)N2Cc1ccccc1 (stereo not drawn) [Compound 81-46, 2-(4-chloro-2-fluoro-3-methoxyphenyl)-7,9-dibenzyl-6-methoxycarbonyl-8-methyl-8,9-dihydro-7H-purine] | 10% | 0% | 0% | 0% | 10% | 0% | 0% | 0% | 0% | 0% | 0% | 0% | 
COC(=O)c1nc(-c2ccc(Cl)c(OC)c2F)nc2c1N(Cc1ccc(OC)cc1OC)C(C)N2Cc1ccc(OC)cc1OC (stereo not drawn) [Compound 83-48, 2-(4-Chloro-2-fluoro-3-methoxyphenyl)-7,9-bis(2,4-dimethoxyphenyl-methyl)-6-methoxycarbonyl-8-methyl-8,9-dihydro-7H-purine] | 20% | 10% | 20% | 0% | 20% | 20% | 0% | 0% | 0% | 0% | 0% | 0% | 
COC(=O)c1nc(C2CC2)nc2c1NC(c1ccccc1)C(c1ccccc1)N2 (stereo not drawn) [Compound 91-44, 2-cyclopropyl-6,7-diphenyl-4-methoxycarbonyl-5,6,7,8-tetrahydropteridine] | 50% | 60% | 50% | 70% | 90% | 20% | 0% | 10% | 20% | 70% | 30% | 30% | 
COC(=O)c1nc(-c2ccc(Cl)c(OC)c2F)nc2c1NC(C)C(C)N2 (stereo not drawn) [Compound 91-184, 2-(4-Chloro-2-fluoro-3-methoxyphenyl)-6,7-dimethyl-4-methoxy-carbonyl-5,6,7,8-tetrahydropteridine] | 0% | 70% | 30% | 20% | 50% | 0% | 0% | 0% | 0% | 0% | 0% | 0% | 
COc1c(Cl)ccc(-c2nc3c(c(C(=O)O)n2)NC(c2ccccc2)C(c2ccccc2)N3)c1F (stereo not drawn) [Compound 91-203, 4-Carboxy-2-(4-chloro-2-fluoro-3-methoxyphenyl)-6,7-diphenyl-5,6,7,8-tetrahydropteridine] | 10% | 10% | 0% | 10% | 40% | 0% | 0% | 0% | 10% | 0% | 20% | 0% | 
COC(=O)c1nc(-c2ccc(Cl)c(OC)c2F)nc2c1NC(c1ccccc1)C(c1ccccc1)N2 (stereo not drawn) [Compound 91-204, 2-(4-Chloro-2-fluoro-3-methoxyphenyl)-6,7-diphenyl-4-methoxycarbonyl-5,6,7,8-tetrahydropteridine] | 0% | 40% | 0% | 50% | 80% | 0% | 0% | 0% | 0% | 20% | 10% | 0% | 
COc1c(Cl)ccc(-c2nc3c(c(C(=O)O)n2)N[C@@H]2CCCC[C@H]2N3)c1F [Compound 91-207, (5aR,9aR)-4-Carboxy-2-(4-chloro-2-fluoro-3-methoxyphenyl)-5,5a,6,7,8,9,9a,10-octahydro-benzo[g]pteridine] | 0% | 60% | 0% | 20% | 70% | 0% | 10% | 0% | 0% | 20% | 10% | 0% | 
